Reference: patent US11104674B2 (Hoffmann-La Roche Inc., priority 2016, dated 2021)

What follows are molecules tested on HBsAg (assay: HBsAg assay (chemiluminescence immunoassay of secreted HBsAg)). Conditions: Hepatitis B virus, HepG2.2.15, HBsAg secretion, HepG2.2.15 cells, CLIA of culture supernatant.
Assay type: cell-based, HBV
Protocol: HepG2.2.15 cells (Acs et al. Proc Natl Acad Sci USA, 84, (1987), 4641-4), a constitutively HBV-expressing cell line were cultured in DMEM+Glutamax-I medium (Invitrogen, Carlsbad, Calif., USA), supplemented with 10% fetal bovine serum (Invitrogen) and G418 (Invitrogen) at a final concentration of 200 mg/L and maintained in 5% CO2 at 37° C.
HepG2.2.15 cells were seeded in duplicate into white, 96-well plates at 1.5×10^4 cells/well. The cells were treated with a three-fold serial dilution series of the compounds in DMSO. The final DMSO concentration in all wells was 1% and DMSO was used as no drug control.
The HBsAg chemiluminescence immunoassay (CLIA) kit (Autobio Diagnostics Co., Zhengzhou, China, Catalog number: CL0310-2) was used to measure the levels of secreted HBV antigens semi-quantitatively. For the detection 50 μL/well culture supernatant was used and HBsAg was quantified using HBsAg chemiluminescence immunoassay (CLIA) kit (Autobio Diagnostics Co., Zhengzhou, China, Catalog number: CL0310-2), 50 μL of the supernatant was transferred to the CLIA assay plate and 50 μL of enzyme conjugate reagent was added into each well. The plates were sealed and gently agitated for 1 hour at room temperature. The supernatant-enzyme-mixture was discarded and wells were washed 6 times with 300 μL of PBS.
The residual liquid was removed by plating the CLIA plate right side down on absorbent tissue paper. 25 μL of substrates A and B were added to each well. Luminance was measured using a luminometer (Mithras LB 940 Multimode Microplate Reader) after 10 minutes incubation. Dose-response curves were generated and the IC50 value was extrapolated by using the E-WorkBook Suite (ID Business Solutions Ltd., Guildford, UK). The IC50 was defined as the compound concentration (or conditioned media log dilution) at which HBsAg secretion was reduced by 50% compared to the no drug control.
The compounds according to formula I were tested for their capacity to inhibit HBsAg as described herein.

| Structure (SMILES) | IC50 [µM] |
| --- | --- |
| CC1c2cnc(-c3ncccn3)nc2CCN1c1cc(F)cc(NC2CNC2)n1 (stereo not shown) [Example 120, N-(azetidin-3-yl)-4-fluoro-6-(5-methyl-2-pyrimidin-2-yl-7,8-dihydro-5H-pyrido[4,3-d]pyrimidin-6-yl)pyridin-2-amine] | 33.3 |
| CC1c2cnc(-c3ccccn3)nc2CCN1c1cc(NCC(F)F)cc(F)n1 (stereo not shown) [Example 79] | 0.071 |
| CC1c2cnc(-c3ncccn3)nc2CCN1c1cc(F)cc(N2CCC(NS(C)(=O)=O)CC2)n1 (stereo not shown) [Example 89, N-[1-[4-fluoro-6-(5-methyl-2-pyrimidin-2-yl-7,8-dihydro-5H-pyrido[4,3-d]pyrimidin-6-yl)-2-pyridyl]-4-piperidyl]methanesulfonamide] | 0.012 |
| COC1CCN(c2cc(F)cc(N3CCc4nc(-c5ccccn5)ncc4C3C)n2)C1 (stereo not shown) [Example 84, 6-[4-fluoro-6-(3-methoxypyrrolidin-1-yl)-2-pyridyl]-5-methyl-2-(2-pyridyl)-7,8-dihydro-5H-pyrido[4,3-d]pyrimidine] | 0.023 |
| COC1CCN(c2cc(F)nc(N3CCc4nc(-c5ccccn5)ncc4C3C)c2)C1 (stereo not shown) [Example 83, 6-[6-fluoro-4-(3-methoxypyrrolidin-1-yl)-2-pyridyl]-5-methyl-2-(2-pyridyl)-7,8-dihydro-5H-pyrido[4,3-d]pyrimidine] | 0.02 |
| COCC1CN(c2cc(F)cc(N3CCc4nc(-c5ncccn5)ncc4C3C)n2)CCO1 (stereo not shown) [Example 15, 4-[4-fluoro-6-(5-methyl-2-pyrimidin-2-yl-7,8-dihydro-5H-pyrido[4,3-d]pyrimidin-6-yl)-2-pyridyl]-2-(methoxymethyl)morpholine] | 0.03 |
| CC1c2cnc(-c3ncccn3)nc2CCN1c1cc(F)nc(N2CCN(S(C)(=O)=O)CC2)c1 (stereo not shown) [Example 107, 6-[2-Fluoro-6-(4-methylsulfonylpiperazin-1-yl)-4-pyridyl]-5-methyl-2-pyrimidin-2-yl-7,8-dihydro-5H-pyrido[4,3-d]pyrimidine] | 0.01 |
| CC1c2cnc(-c3ccccn3)nc2CCN1c1cc(N2CCC(C(=O)NS(C)(=O)=O)C2)cc(F)n1 (stereo not shown) [Example 86, 1-[2-fluoro-6-[5-methyl-2-(2-pyridyl)-7,8-dihydro-5H-pyrido[4,3-d]pyrimidin-6-yl]-4-pyridyl]-N-methylsulfonyl-pyrrolidine-3-carboxamide] | 1.24 |
| CC1c2cnc(-c3ncccn3)nc2CCN1c1cc(NC2CCN(S(C)(=O)=O)CC2)cc(F)n1 (stereo not shown) [Example 96, 2-Fluoro-6-(5-methyl-2-pyrimidin-2-yl-7,8-dihydro-5H-pyrido[4,3-d]pyrimidin-6-yl)-N-(1-methylsulfonyl-4-piperidyl)pyridin-4-amine] | 0.125 |
| COCC1CCCN1c1cc(F)cc(N2CCc3nc(-c4ncccn4)ncc3C2C)n1 (stereo not shown) [Example 35, 6-[4-fluoro-6-[2-(methoxymethyl)pyrrolidin-1-yl]-2-pyridyl]-5-methyl-2-pyrimidin-2-yl-7,8-dihydro-5H-pyrido[4,3-d]pyrimidine] | 0.033 |
| CC1c2cnc(-c3ncccn3)nc2CCN1c1cc(N2CCCC2C(=O)O)cc(F)n1 (stereo not shown) [Example 32, 1-[2-fluoro-6-(5-methyl-2-pyrimidin-2-yl-7,8-dihydro-5H-pyrido[4,3-d]pyrimidin-6-yl)-4-pyridyl]pyrrolidine-2-carboxylic acid] | 0.391 |
| CC1c2cnc(-c3ncccn3)nc2CCN1c1cc(N2CC(C(N)=O)C2)cc(F)n1 (stereo not shown) [Example 82, 1-[2-fluoro-6-(5-methyl-2-pyrimidin-2-yl-7,8-dihydro-5H-pyrido[4,3-d]pyrimidin-6-yl)-4-pyridyl]azetidine-3-carboxamide] | 0.149 |
| CC(=O)N1CCN(c2cc(F)nc(N3CCc4nc(-c5ncccn5)ncc4C3C)c2)CC1 (stereo not shown) [Example 16, 1-[4-[2-fluoro-6-(5-methyl-2-pyrimidin-2-yl-7,8-dihydro-5H-pyrido[4,3-d]pyrimidin-6-yl)-4-pyridyl]piperazin-1-yl]ethanone] | 0.014 |
| CC1c2cnc(-c3ncccn3)nc2CCN1c1cc(N2CC(CO)C2)cc(F)n1 (stereo not shown) [Example 135, [1-[2-fluoro-6-(5-methyl-2-pyrimidin-2-yl-7,8-dihydro-5H-pyrido[4,3-d]pyrimidin-6-yl)-4-pyridyl]azetidin-3-yl]methanol] | 0.008 |
| CC1c2cnc(-c3ncccn3)nc2CCN1c1cc(N(C)S(=O)(=O)c2ccccc2)cc(F)n1 (stereo not shown) [Example 161, N-[2-Fluoro-6-(5-methyl-2-pyrimidin-2-yl-7,8-dihydro-5H-pyrido[4,3-d]pyrimidin-6-yl)-4-pyridyl]-N-methyl-benzenesulfonamide] | 0.005 |
| CC1c2cnc(-c3ncccn3)nc2CCN1c1cc(NC2CNC2)cc(F)n1 (stereo not shown) [Example 121, N-(azetidin-3-yl)-2-fluoro-6-(5-methyl-2-pyrimidin-2-yl-7,8-dihydro-5H-pyrido[4,3-d]pyrimidin-6-yl)pyridin-4-amine] | 0.496 |
| CC1c2cnc(-c3ncccn3)nc2CCN1c1cc(N2CC3(COC3)CC2=O)cc(F)n1 (stereo not shown) [Example 151, 7-[2-Fluoro-6-(5-methyl-2-pyrimidin-2-yl-7,8-dihydro-5H-pyrido[4,3-d]pyrimidin-6-yl)-4-pyridyl]-2-oxa-7-azaspiro[3.4]octan-6-one] | 0.027 |
| CC1c2cnc(-c3ncccn3)nc2CCN1c1cc(N2CCC(C(=O)NS(C)(=O)=O)CC2)cc(F)n1 (stereo not shown) [Example 66, 1-[2-fluoro-6-(5-methyl-2-pyrimidin-2-yl-7,8-dihydro-5H-pyrido[4,3-d]pyrimidin-6-yl)-4-pyridyl]-N-methylsulfonyl-piperidine-4-carboxamide] | 1.94 |
| CC1c2cnc(-c3ncccn3)nc2CCN1c1cc(N2CCC2)cc(F)n1 (stereo not shown) [Example 110, 6-[4-(azetidin-1-yl)-6-fluoro-2-pyridyl]-5-methyl-2-pyrimidin-2-yl-7,8-dihydro-5H-pyrido[4,3-d]pyrimidine] | 0.008 |
| COCCS(=O)(=O)N1CCN(c2cc(F)nc(N3CCc4nc(-c5ncccn5)ncc4C3C)c2)CC1 (stereo not shown) [Example 87, 6-[6-fluoro-4-[4-(2-methoxyethylsulfonyl)piperazin-1-yl]-2-pyridyl]-5-methyl-2-pyrimidin-2-yl-7,8-dihydro-5H-pyrido[4,3-d]pyrimidine] | 0.005 |
| CC1c2cnc(-c3ncccn3)nc2CCN1c1cc(F)cc(NS(=O)(=O)c2ccccc2)n1 (stereo not shown) [Example 78, N-[4-fluoro-6-(5-methyl-2-pyrimidin-2-yl-7,8-dihydro-5H-pyrido[4,3-d]pyrimidin-6-yl)-2-pyridyl]benzenesulfonamide] | 0.263 |
| CC1c2cnc(-c3ncccn3)nc2CCN1c1cc(N2CC(C)(C)OC2=O)cc(F)n1 (stereo not shown) [Example 114, 3-[2-Fluoro-6-(5-methyl-2-pyrimidin-2-yl-7,8-dihydro-5H-pyrido[4,3-d]pyrimidin-6-yl)-4-pyridyl]-5,5-dimethyl-oxazolidin-2-one] | 0.008 |
| CC1c2cnc(-c3ncccn3)nc2CCN1c1cc(F)cc(N2CC(C(N)=O)C2)n1 (stereo not shown) [Example 81, 1-[4-fluoro-6-(5-methyl-2-pyrimidin-2-yl-7,8-dihydro-5H-pyrido[4,3-d]pyrimidin-6-yl)-2-pyridyl]azetidine-3-carboxamide] | 0.206 |
| CC1c2cnc(-c3ncccn3)nc2CCN1c1cc(N(C)S(=O)(=O)C2CC2)cc(F)n1 (stereo not shown) [Example 160, N-[2-fluoro-6-(5-methyl-2-pyrimidin-2-yl-7,8-dihydro-5H-pyrido[4,3-d]pyrimidin-6-yl)-4-pyridyl]-N-methyl-cyclopropanesulfonamide] | 0.006 |
| CC1c2cnc(-c3ncccn3)nc2CCN1c1cc(N2CC(NS(C)(=O)=O)C2)cc(F)n1 (stereo not shown) [Example 119, N-[1-[2-fluoro-6-(5-methyl-2-pyrimidin-2-yl-7,8-dihydro-5H-pyrido[4,3-d]pyrimidin-6-yl)-4-pyridyl]azetidin-3-yl]methanesulfonamide] | 0.057 |
| CC1CN(c2cc(F)cc(N3CCc4nc(-c5ncccn5)ncc4C3C)n2)CC(=O)N1 (stereo not shown) [Example 133, 4-[4-fluoro-6-(5-methyl-2-pyrimidin-2-yl-7,8-dihydro-5H-pyrido[4,3-d]pyrimidin-6-yl)-2-pyridyl]-6-methyl-piperazin-2-one] | 0.009 |
| CC1c2cnc(-c3ncccn3)nc2CCN1c1cc(N2CCNC(C(=O)O)C2)cc(F)n1 (stereo not shown) [Example 50, 4-[2-Fluoro-6-(5-methyl-2-pyrimidin-2-yl-7,8-dihydro-5H-pyrido[4,3-d]pyrimidin-6-yl)-4-pyridyl]piperazine-2-carboxylic acid] | 1.94 |
| CC1c2cnc(-c3ncccn3)nc2CCN1c1cc(N2CCNC2=O)cc(F)n1 (stereo not shown) [Example 157, 1-[2-Fluoro-6-(5-methyl-2-pyrimidin-2-yl-7,8-dihydro-5H-pyrido[4,3-d]pyrimidin-6-yl)-4-pyridyl]imidazolidin-2-one] | 0.006 |
